What was measured:
EphB kinases = test: ELISA displacement of biotinylated ephrinB1-Fc from immobilized EphB-Fc ectodomains; format: binding; conditions: biotinylated ephrinB1-Fc at KD concentration
EphA2 [1] = target: T1, EphA2 (Homo sapiens, UniProt P29317); conditions: up to 100 µM
Description: Recombinant human EphA2 enzyme activity was evaluated with LANCE® method using ATP and Ulight-TK peptide as substrate (http://las.perkinelmer.com/).

EGFR = EGFR (Homo sapiens, UniProt P00533); test: Phosphorylated-EGFR sandwich ELISA in PC3 cells; format: cell-based; conditions: 100 µM, 30 ng/ml EGF
Description: (§1) Cells were seeded in 12-well plates at concentration of 10^5cells/ml in complete medium until they reached ∼40% confluence and serum starved overnight. The day after cells were treated with compounds under study, vehicle or standard drug, stimulated with the proper agonist, rinsed with sterile PBS and solubilized in lysis buffer. The lysates were resuspended and rocked at 4°C for 30 minutes and then centrifuged at 14000 xg for 5 minutes. The protein content of supernatant was measured with BCA protein assay kit (Thermo scientific), standardized to 200 µg/ml and transferred into a clean test tube ready to be used.
(§2) EphA2-, EphB4- and EGFR-phosphorylation were measured in cell lysates using DuoSet®IC Sandwich ELISA (RnD Systems, #DYC4056, #DYC4057 and #DYC1095, respectively) following manufacturer's protocol. […] The day after wells were washed and blocked for 1 hour at room temperature. After that, wells were washed and 100 µl/well of lysates were added at room temperature for 2 hours; wells were washed and incubated with Detection Antibody at room temperature for 2 hours.
(§3) A, B) EGFR phosphorylation was induced by 30 ng/ml and 10 ng/ml EGF on PC3 (A) and HT29 (B) cells, respectively. […] Data are the means of two experiments ± st. err.

IRKβ = target: T2, IRKβ (Homo sapiens, UniProt P06213); test: IRKβ activity, alpha Technology; format: cell-based; conditions: 100 µM, 100 nM insulin
T2 construct: in HepG2 or A431 cells, respectively; endogenous in cells; host or cells: HepG2 according to b24; A431 according to the order in the legend b55
Description: Cells were stimulated with 5 nM IGF1 or 100 nM insulin for 10 minutes, lysed and a fluorescence acceptor (alphaLISA protein A beads coated with anti-phospho-IRKβ or -IGFR1β) added for 2 hours. A fluorescence donor (streptavidin coupled-beads) coated with an antibody towards IRKβ or IGFR1β was incubated for 2 hours and the signal was measured at λex = 680 nm and λem = 500 nm and 600 nm using a microplate reader (EnVision, Perkin Elmer, Waltham, MA, USA).
These assays were performed at CEREP (Celle L'Evescault, France).
as §3

EphA2-ephrinA1 binding = target: T3, EphA2-ephrinA1 binding (Mus musculus, UniProt Q03145); test: ELISA EphA2-ephrinA1 binding (displacement and saturation)
T3 construct: we immobilized EphA2-Fc- ectodomain on proper ELISA plates; purchased R&D systems 639-A2 (EphA2-Fc); BT602 (biotinylated ephrinA1-Fc)
Description: Our chemical collection (Table S1) was stocked in a 20 mM dimethyl sulfoxide (DMSO) solution and we performed binding assay at a concentration of 200 µM. Only compounds displacing more than 40% ephrinA1 from EphA2 receptor were considered for a full concentration-binding curve. […] The day after wells were washed three times with washing buffer (PBS +0.05% tween20, pH 7.5) and blocked with 300 µl of blocking solution (PBS +0.5% BSA) for 1 hour at 37°C. Compounds were added to the wells at proper concentration in 1% dimethyl sulfoxide (DMSO) and incubated at 37°C for 1 hour. Biotinylated ephrinA1-Fc (R&D BT602) was added at 37°C for 4 hours at 30 ng/ml in displacement assays or in a range from 1 to 2000 ng/ml in saturation studies. […] The reaction was stopped with 3N HCl 100 µl/well and the absorbance was measured using an ELISA plate reader (Sunrise, TECAN, Switzerland) at 450 nm.
The IC50 value was determined using one-site competition non-linear regression and Kd values of the curves with or without antagonists were calculated using one-binding site non-linear regression analysis with Prism software (GraphPad Software Inc.). The Ki was obtained using Schild plot where Log[DR-1] is a function of the negative Log10 of the inhibitor concentration. The Hill's coefficient was calculated using linear fitting to evaluate whether the inhibition was competitive or uncompetitive.
To identify compounds interfering with EphA2-ephrinA1 binding we immobilized EphA2-Fc- ectodomain on proper ELISA plates and binding of biotinylated-ephrin-A1-Fc was detected using the colorimetric reaction developed by streptavidine-HRP and tetramethylbenzidine.

EphA2 [2] = target: T1, EphA2; test: Phosphorylated-EphA2 sandwich ELISA in PC3 cell lysates; format: cell-based; parameters: their known ability to naturally express EphA2; endogenous in cells; host or cells: PC3 (A5); conditions: PC3 cells
Description: as §1, §2
EphB4 phosphorylation was stimulated with 3 µg/ml ephrinB2-Fc, preclustered with 0.3 µg/ml IgG Fc fragment on T47D cells (G, H, I). […] Phospho-EphA2/B4 levels are relative to ephrinA1/B2-Fc+DMSO. Data are the means of at least three independent experiment ± st. err. One-way ANOVA followed by Dunnet's post test was performed comparing Fc to all other columns for Fig A, D, G and ephrinA1-Fc+DMSO to all other columns for Fig B,C,E, F, H, I. *, p<0.05, **, p<0.01.

PC3 cells = test: PC3 cell binding / adhesion assay (MTT readout); format: cell-based, human
Description: 96 well ELISA high binding plates were incubated overnight at 4°C with ephrinA1-Fc 1 µg/cm^2, 100 µl per well. The plates were washed three times with PBS and blocked for 1 hour with BSA 1%. Cells were treated with proper concentration of substance or DMSO 0.5% for 30 minutes in vials on a shaker. After that, plates were washed with PBS and incubated with 100 µl 5×10^5 cells/ml for 1 hour at 37°C. Finally, plates were washed with PBS and adhering cells were quantified using MTT colorimetric assay.
96-wells plates for cell culture were untretaed (A) or coated with 1 µg/cm^2 ephrinA1-Fc (B) overnight. PC3 cells were treated with the indicated compounds for 30 minutes in a tube and let to adhere for 60 minutes on the wells. Cell adhesion is reported normalizing adhesion of Fc to 100%. […] Data are the means of at least three independent experiment ± st. err. One-way ANOVA followed by Dunnet's post test was performed comparing Fc to all other column. No significant differences were detected for data in graph A. *, p<0.05, **,p<0.01.

T3 sequence (Q03145 26-538 limits assumed): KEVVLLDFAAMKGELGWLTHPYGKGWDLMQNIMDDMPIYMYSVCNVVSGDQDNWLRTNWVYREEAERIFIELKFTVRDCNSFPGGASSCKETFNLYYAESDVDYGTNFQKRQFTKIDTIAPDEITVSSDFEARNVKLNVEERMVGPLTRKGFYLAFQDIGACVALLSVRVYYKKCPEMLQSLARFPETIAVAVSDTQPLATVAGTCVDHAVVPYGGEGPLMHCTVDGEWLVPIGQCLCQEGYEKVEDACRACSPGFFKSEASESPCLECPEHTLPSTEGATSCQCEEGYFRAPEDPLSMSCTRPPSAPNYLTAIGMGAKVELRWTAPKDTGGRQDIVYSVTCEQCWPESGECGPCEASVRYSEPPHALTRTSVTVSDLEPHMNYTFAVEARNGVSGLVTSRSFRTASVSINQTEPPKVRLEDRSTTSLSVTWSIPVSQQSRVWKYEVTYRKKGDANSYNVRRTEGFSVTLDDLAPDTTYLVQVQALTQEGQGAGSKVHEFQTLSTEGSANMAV
T1 sequence (P29317 24-976): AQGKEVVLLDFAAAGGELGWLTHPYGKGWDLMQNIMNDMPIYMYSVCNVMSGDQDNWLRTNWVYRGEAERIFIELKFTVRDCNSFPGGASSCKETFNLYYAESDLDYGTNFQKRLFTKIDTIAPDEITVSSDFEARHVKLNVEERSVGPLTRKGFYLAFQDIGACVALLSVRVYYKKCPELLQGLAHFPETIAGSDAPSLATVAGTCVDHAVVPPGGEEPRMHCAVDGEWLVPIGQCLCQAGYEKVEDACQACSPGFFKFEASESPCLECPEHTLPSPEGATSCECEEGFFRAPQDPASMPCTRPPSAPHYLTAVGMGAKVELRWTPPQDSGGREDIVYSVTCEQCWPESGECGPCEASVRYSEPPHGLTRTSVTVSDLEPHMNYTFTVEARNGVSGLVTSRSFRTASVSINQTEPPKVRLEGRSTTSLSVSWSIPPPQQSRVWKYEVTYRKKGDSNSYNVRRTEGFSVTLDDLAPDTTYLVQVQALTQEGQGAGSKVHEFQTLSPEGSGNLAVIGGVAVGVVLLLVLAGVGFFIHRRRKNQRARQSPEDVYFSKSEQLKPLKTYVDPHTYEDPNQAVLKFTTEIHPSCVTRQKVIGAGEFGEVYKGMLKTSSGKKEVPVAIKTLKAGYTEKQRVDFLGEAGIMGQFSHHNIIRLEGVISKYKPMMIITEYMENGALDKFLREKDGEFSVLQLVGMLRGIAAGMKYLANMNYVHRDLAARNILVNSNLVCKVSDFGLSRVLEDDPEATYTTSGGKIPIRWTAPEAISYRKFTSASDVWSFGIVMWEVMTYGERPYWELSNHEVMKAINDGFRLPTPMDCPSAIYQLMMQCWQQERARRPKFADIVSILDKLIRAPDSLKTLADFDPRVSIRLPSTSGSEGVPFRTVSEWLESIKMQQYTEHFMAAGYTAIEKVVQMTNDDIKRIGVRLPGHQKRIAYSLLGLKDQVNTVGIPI
Chain of EGFR (P00533 25-1210): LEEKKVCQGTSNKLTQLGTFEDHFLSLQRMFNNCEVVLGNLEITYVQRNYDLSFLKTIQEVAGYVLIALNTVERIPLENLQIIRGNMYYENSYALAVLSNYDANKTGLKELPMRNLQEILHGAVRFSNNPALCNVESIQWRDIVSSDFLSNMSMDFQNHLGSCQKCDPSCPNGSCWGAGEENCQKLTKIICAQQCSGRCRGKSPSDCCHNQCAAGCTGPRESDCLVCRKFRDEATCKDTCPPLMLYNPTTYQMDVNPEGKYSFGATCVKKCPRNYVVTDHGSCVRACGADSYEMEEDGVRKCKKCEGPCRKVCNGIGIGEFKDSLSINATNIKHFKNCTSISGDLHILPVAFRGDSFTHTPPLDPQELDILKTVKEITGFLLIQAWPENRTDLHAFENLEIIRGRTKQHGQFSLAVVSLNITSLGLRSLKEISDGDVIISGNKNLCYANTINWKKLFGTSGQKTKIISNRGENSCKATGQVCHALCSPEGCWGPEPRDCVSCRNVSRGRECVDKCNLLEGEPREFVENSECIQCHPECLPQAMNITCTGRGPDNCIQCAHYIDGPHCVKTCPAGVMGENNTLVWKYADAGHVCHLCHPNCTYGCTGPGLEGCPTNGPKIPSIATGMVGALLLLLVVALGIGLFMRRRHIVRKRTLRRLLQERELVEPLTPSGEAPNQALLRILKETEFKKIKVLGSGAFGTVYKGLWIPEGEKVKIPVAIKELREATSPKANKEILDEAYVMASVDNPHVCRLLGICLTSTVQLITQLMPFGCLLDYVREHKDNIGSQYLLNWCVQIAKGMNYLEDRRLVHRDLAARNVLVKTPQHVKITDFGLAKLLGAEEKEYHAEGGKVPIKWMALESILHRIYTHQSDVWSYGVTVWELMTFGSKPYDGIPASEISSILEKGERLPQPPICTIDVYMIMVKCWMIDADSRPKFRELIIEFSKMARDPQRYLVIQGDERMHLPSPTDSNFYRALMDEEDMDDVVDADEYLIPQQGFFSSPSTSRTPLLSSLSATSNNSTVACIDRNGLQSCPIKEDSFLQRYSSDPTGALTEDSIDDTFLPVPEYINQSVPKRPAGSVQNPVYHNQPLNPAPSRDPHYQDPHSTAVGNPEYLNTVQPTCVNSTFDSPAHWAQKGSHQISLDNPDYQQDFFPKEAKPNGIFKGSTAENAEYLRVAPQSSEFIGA
T2 sequence (P06213 763-1382 limits assumed): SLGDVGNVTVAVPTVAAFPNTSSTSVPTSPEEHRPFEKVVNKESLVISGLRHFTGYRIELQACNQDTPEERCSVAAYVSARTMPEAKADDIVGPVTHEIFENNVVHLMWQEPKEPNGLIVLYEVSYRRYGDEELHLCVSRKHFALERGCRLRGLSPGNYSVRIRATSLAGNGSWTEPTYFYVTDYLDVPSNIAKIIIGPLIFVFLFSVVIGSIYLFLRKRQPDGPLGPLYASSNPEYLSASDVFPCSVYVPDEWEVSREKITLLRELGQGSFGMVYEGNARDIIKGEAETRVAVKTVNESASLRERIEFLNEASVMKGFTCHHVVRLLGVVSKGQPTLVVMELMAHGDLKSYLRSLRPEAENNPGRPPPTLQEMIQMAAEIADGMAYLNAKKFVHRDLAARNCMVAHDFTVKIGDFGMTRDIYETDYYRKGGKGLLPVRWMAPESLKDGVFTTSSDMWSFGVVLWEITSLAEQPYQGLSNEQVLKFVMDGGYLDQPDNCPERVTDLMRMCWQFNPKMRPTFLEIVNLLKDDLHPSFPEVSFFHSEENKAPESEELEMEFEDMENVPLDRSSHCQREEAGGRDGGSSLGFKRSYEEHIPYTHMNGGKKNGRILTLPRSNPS
T2 sequence (P06213 28-758 partner limits assumed): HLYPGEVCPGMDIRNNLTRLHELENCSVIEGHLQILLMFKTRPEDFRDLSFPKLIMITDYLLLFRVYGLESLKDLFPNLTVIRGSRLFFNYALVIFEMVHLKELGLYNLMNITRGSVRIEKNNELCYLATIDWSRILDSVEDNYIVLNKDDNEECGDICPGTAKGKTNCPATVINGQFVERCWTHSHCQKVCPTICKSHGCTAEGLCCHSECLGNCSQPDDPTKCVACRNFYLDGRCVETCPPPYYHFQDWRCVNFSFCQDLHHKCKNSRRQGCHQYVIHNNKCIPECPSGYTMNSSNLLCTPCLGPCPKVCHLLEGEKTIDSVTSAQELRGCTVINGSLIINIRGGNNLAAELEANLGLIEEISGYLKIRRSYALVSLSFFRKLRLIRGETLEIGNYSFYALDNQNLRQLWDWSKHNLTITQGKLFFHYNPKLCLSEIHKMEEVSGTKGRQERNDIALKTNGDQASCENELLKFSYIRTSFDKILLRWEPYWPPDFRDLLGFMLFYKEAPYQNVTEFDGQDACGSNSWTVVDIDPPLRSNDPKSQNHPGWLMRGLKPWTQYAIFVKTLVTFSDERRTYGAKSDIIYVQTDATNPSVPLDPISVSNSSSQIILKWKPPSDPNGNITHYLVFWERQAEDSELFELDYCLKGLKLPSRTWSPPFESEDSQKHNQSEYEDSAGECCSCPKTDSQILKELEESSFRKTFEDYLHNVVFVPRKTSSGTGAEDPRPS

C[C@H](CCC(=O)O)[C@H]1CC[C@H]2[C@@H]3CC[C@@H]4C[C@H](O)CC[C@]4(C)[C@H]3CC[C@]12C [LCA, lithocholic acid]
displacement of ephrin-B1-Fc ectodomain from immobilized EphB-Fc ectodomains (EphB kinases): dose-dependently displaced
effect on EphA2 enzymatic activity (EphA2 [1]): did not modify enzymatic activity
effect on EGF-induced EGFR phosphorylation (EGFR): completely inactive
effect on IRKβ activity as agonist or antagonist (IRKβ): failed to affect activity
reduction of EphA2-ephrinA1 binding (library screening) (EphA2-ephrinA1 binding; 200 µM, incubated 1 hour): significantly reduce
decrease of EphA2-ephrinA1 binding (EphA2-ephrinA1 binding; bile acids, repeat of the 200 µM experiment): 68.2%±4.3
Ki (EphA2-ephrinA1 binding; corresponding to pKi, read-out: Ki (Schild plot)): 49 µM
IC50 (EphA2-ephrinA1 binding; read-out: IC50 displacement of biotinylated-ephrinA1-Fc from EphA2): 57 µM
slope of Schild plot (EphA2-ephrinA1 binding; saturation curves with increasing LCA, r^2 = 0.9664): 0.8618
inhibition of EphA2 phosphorylation (EphA2 [2]; 10 µM): subthreshold
inhibition of EphA2 phosphorylation (EphA2 [2]; 100 µM): inhibiting completely
PC3 adhesion to ephrinA1-Fc (PC3 cells; ephrinA1-Fc coated plates, increasing concentrations): dose-dependently inhibited
aspecific PC3 cell adhesion (PC3 cells; uncoated standard cell culture plates): neither ephrinA1-Fc nor LCA inhibited

Reference: article PMC3068151 (PLoS ONE, 2011)
